Entries after “also recorded” stand apart in the source; their conditions may differ.
Assays:
FKBPL [1] = assay: FKBPL protein level in HUVEC under hypoxia or normoxia (Western blotting); format: cell-based, human; settings: 24 h, metformin 10 μM
Description: HUVEC cells were seeded and then exposed to hypoxia (1%) or normoxia (21%) for 24 h in the presence of metformin or vehicle control (VC). Protein lysates were prepared and FKBPL protein level measured using Western blotting.

FKBPL [2] = assay: FKBPL mRNA levels in HTR8.SV.neo cells; format: cell-based; settings: 10 μM, 24 h, serum-containing medium
Description: (§1) Trophoblast (HTR8.SV.neo, BeWo) and endothelial cells (HUVEC) were exposed to: • i. diabetic stimuli, in the form of highly oxidised and glycated low density lipoproteins (HOG-LDL, 25 μg/ml)/4HNE (10 μM) or high glucose (10, 20, 30, 40 mM); or • ii. hypoxia (1%) or DMOG (10 μM), before FKBPL/SIRT1 protein and RNA levels were measured.

FKBPL [3] = assay: FKBPL protein expression in BeWo trophoblast cell line; format: cell-based; settings: BeWo cells, 10 μM, serum-containing medium
Description: as §1

CN(C)C(=N)N=C(N)N [metformin]
FKBPL expression normalised to vehicle control (FKBPL [1]; hypoxia (1%)): increasing the protein expression of FKBPL; also recorded: upregulates FKBPL
FKBPL expression normalised to vehicle control (FKBPL [1]; normoxia (21%)): No change in FKBPL levels; also recorded: does not affect levels of FKBPL

COC(=O)CNC(=O)C(=O)OC [DMOG]
FKBPL mRNA levels (FKBPL [2]): reduction in FKBPL mRNA levels; also recorded: downregulation in FKBPL mRNA levels
FKBPL protein expression (FKBPL [3]): reduction; also recorded: downregulation of FKBPL protein expression

CCCCCC(O)/C=C/C=O (centres unmarked) [4-HNE]
FKBPL mRNA levels (FKBPL [2]): No change
FKBPL mRNA levels (FKBPL [2]; listed as 4HNE): No change in FKBPL mRNA levels
FKBPL protein expression (FKBPL [3]): downregulation of FKBPL protein expression
FKBPL protein expression (FKBPL [3]; listed as 4HNE): reduction in FKBPL protein levels

Source: patent publication US20190204335A1, “Assay Method For Determining The Risk Of Pre-Eclampsia” (The Queen's University of Belfast, priority 2016, published 2019)
